From patent publication US20240279202A1 (NURIX THERAPEUTICS, INC., priority 2021, published 2024) come the findings set out here.

The target of this assay is T1, ITK (Homo sapiens, UniProt Q08881).
T1 sequence (Q08881 1-620): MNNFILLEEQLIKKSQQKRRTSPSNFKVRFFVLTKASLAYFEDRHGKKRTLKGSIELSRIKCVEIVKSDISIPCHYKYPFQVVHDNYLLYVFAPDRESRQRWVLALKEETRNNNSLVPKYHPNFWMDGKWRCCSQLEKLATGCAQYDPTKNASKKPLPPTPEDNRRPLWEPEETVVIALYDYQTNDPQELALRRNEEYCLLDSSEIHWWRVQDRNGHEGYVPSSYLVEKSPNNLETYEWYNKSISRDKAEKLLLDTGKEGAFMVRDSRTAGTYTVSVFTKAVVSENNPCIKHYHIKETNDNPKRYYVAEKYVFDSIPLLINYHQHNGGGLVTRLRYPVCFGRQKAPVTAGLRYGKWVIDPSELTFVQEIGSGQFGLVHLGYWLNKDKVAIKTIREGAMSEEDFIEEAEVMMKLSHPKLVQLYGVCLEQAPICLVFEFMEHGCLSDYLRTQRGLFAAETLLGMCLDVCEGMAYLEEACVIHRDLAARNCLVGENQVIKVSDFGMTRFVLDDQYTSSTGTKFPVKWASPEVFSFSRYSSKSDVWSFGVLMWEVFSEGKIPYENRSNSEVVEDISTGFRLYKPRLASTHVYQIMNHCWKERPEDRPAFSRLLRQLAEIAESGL
The assay can be described thus: ITK degradation HiBiT assay. Format: cell-based. Further details: expressed in transfected cells; host or cells: Molt4 (ATCC CRL-1552), monoclonal clone 1C10, engineered to carry the HiBiT tag. Particulars: 4 hrs; for Dmax: MOLT-4, C-terminal HiBiT-tagged Molt4 cells; for DC50: C-terminal HiBiT-tagged Molt4 cells. The gist of the method:
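C-terminal HiBiT-tagged Molt4 cells (clone 1C10) treated 4 h at 32° C with an 11-point, 5-fold compound dilution series (0.5% DMSO). HiBiT lytic detection with LgBiT then luminescence read; % ITK remaining versus concentration fit by four-parameter variable-slope model to give DC50 and Dmax.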

`CC1(C)CCc2c(-c3cc4ccc(C(=O)N5CCN(CC6CCN(c7ncc(C8CCC(=O)NC8=O)cc7F)CC6)CC5)cc4[nH]3)n[nH]c2C1` (stereo not drawn) [Compound 183] gave a maximal degradation (Dmax) of 81%.

Regarding `COc1cc(N2CCC(CN3CCN(C(=O)c4ccc5cc(-c6n[nH]c7c6CCC(C)(C)C7)[nH]c5c4)CC3)CC2)ccc1C1CCC(=O)NC1=O` (stereo not drawn) [Compound 184], the Dmax turned out to be 70%. Same read-out and setting: for `CC1(C)CCc2c(-c3cc4ccc(C(=O)N5CCN(CCC6CCN(c7cc(C8CCC(=O)NC8=O)ccn7)CC6)CC5)cc4[nH]3)n[nH]c2C1` (stereo not drawn) [Compound 186] the value was 87%. Same read-out and setting: the result for `CC1(C)CCc2c(-c3cc4ccc(C(=O)N5CCN(CC6CCN(c7ncc(C8CCC(=O)NC8=O)cn7)CC6)CC5)cc4[nH]3)n[nH]c2C1` (stereo not drawn) [Compound 187] reads 70%; that for `C[C@@H](C(=O)N(C)c1cc2[nH]c(-c3n[nH]c4c3CCC(C)(C)C4)cc2cc1F)N1CCN(CC2CCN(c3ccc(C4CCC(=O)NC4=O)cn3)CC2)CC1` (stereo partly drawn) [Compound 188], 85%.

On to `C[C@@H]1CN(c2ccc(C3CCC(=O)NC3=O)cn2)CCN1CC1CCN(C(=O)c2ccc3cc(-c4n[nH]c5c4CCC(C)(C)C5)[nH]c3c2)CC1` (stereo partly drawn) [Compound 189], for which the Dmax came out at 84%.

The compound `C[C@H]1CN(c2ccc(C3CCC(=O)NC3=O)cn2)CCN1CC1CCN(C(=O)c2ccc3cc(-c4n[nH]c5c4CCC(C)(C)C5)[nH]c3c2)CC1` (stereo partly drawn) [Compound 190] had a Dmax of 86%.

For `CC1(C)CCc2c(-c3cc4ccc(C(=O)N5CCC(CN6CCCN(c7ccc(C8CCC(=O)NC8=O)cn7)CC6)CC5)cc4[nH]3)n[nH]c2C1` (stereo not drawn) [Compound 191], the Dmax is 78%. Still for that read-out and setting: the result for `CC1(C)CCc2c(-c3cc4ccc(C(=O)N5CCC(CN6CCc7cc(C8CCC(=O)NC8=O)ccc7C6)CC5)cc4[nH]3)n[nH]c2C1` (stereo not drawn) [Compound 193] reads 85%; that for `CC1(C)CCc2c(-c3cc4cc(C(=O)N5CCC(CN6CCc7cc(C8CCC(=O)NC8=O)ccc7C6)CC5)ccc4[nH]3)n[nH]c2C1` (stereo not drawn) [Compound 194], 64%. The same measure, in the same setting: the result for `CC1(C)CCc2c(-c3cc4ccc(C(=O)N5CCC(CN6CCCc7cc(C8CCC(=O)NC8=O)ccc76)CC5)cc4[nH]3)n[nH]c2C1` (stereo not drawn) [Compound 199] reads 52%. Same read-out and setting: for `C[C@@]12Cc3[nH]nc(C(=O)Nc4cnn(CC5CCN(CC6CCN(C(=O)c7ccc(F)c(N8CCC(=O)NC8=O)c7)CC6)CC5)c4)c3C[C@@H]1C2(F)F` [Compound 204] the value was 70%. As for `C[C@@]12Cc3[nH]nc(C(=O)Nc4cnn(C5CCN(CC6CCN(c7ccc(N8CCC(=O)NC8=O)cc7)CC6)CC5)c4)c3C[C@@H]1C2(F)F` [Compound 207, (4aS,5aR)-N-(1-(1-((1-(4-(2,4-dioxotetrahydropyrimidin-1(2H)-yl)phenyl)piperidin-4-yl)methyl)piperidin-4-yl)-1H-pyrazol-4-yl)-5,5-difluoro-5a-methyl-1,4,4a,5,5a,6-hexahydrocyclopropa[f]indazole-3-carboxamide], the DC50 is 0.49 nM and the Dmax is 65%.

Turning to `C[C@@]12Cc3[nH]nc(C(=O)Nc4cnn(C5CCN(CC6CCN(c7ccc(N8CCC(=O)NC8=O)cc7)C6)CC5)c4)c3C[C@@H]1C2(F)F` (stereo partly drawn) [Compound 209, (4aS,5aR)-N-(1-(1-((1-(4-(2,4-dioxotetrahydropyrimidin-1(2H)-yl)phenyl)pyrrolidin-3-yl)methyl)piperidin-4-yl)-1H-pyrazol-4-yl)-5,5-difluoro-5a-methyl-1,4,4a,5,5a,6-hexahydrocyclopropa[f]indazole-3-carboxamide], the half-maximal degradation concentration (DC50) was 0.345 nM and the Dmax worked out at 78%. For `CC1(C)CCc2c(-c3cc4ccc(C(=O)N5CCC(CN6CCN(c7cc(C8CCC(=O)NC8=O)ccn7)CC6)CC5)cc4[nH]3)n[nH]c2C1` (stereo not drawn) [Compound 214, 3-{2-[4-({1-[2-(6,6-dimethyl-1,4,5,7-tetrahydroindazol-3-yl)-1H-indole-6-carbonyl]piperidin-4-yl}methyl)piperazin-1-yl]pyridin-4-yl}piperidine-2,6-dione] the same measures were 36 nM and 53%.

Compound `CC1(C)CCc2c(-c3cc4cc(F)c(C(=O)N5CCN(CC6CCN(c7ccc(C8CCC(=O)NC8=O)nc7)CC6)CC5)cc4[nH]3)n[nH]c2C1` (stereo not drawn) [Compound 216, 3-{5-[4-({4-[2-(6,6-dimethyl-1,4,5,7-tetrahydroindazol-3-yl)-5-fluoro-1H-indole-6-carbonyl]piperazin-1-yl}methyl)piperidin-1-yl]pyridin-2-yl}piperidine-2,6-dione] displayed a DC50 of 0.06 nM and a Dmax of 87%. For `CC1(C)CCc2c(-c3cc4ccc(C(=O)N5CCN(CC6CCN(c7ccc(C8CCC(=O)NC8=O)c(F)c7)CC6)CC5)cc4[nH]3)n[nH]c2C1` (stereo not drawn) [Compound 221, 3-(4-(4-((4-(2-(6,6-dimethyl-4,5,6,7-tetrahydro-1H-indazol-3-yl)-1H-indole-6-carbonyl)piperazin-1-yl)methyl)piperidin-1-yl)-2-fluorophenyl)piperidine-2,6-dione] the same measures were 3.57 nM and 84%. For `CC1(C)CCc2c(-c3cc4ccc(C(=O)N5CCN(CC6CCN(c7ccc(C8CCC(=O)NC8=O)cc7F)CC6)CC5)cc4[nH]3)n[nH]c2C1` (stereo not drawn) [Compound 222, 3-{4-[4-({4-[2-(6,6-dimethyl-1,4,5,7-tetrahydroindazol-3-yl)-1H-indole-6-carbonyl]piperazin-1-yl}methyl)piperidin-1-yl]-3-fluorophenyl}piperidine-2,6-dione] the same measures were 1.42 nM and 75%.
